This is an account of results in patent publication US20160083391A1, “TRICYCLIC PIPERAZINE DERIVATIVE” (Sunovion Pharmaceuticals Inc., priority 2014, published 2016).

The subject of this assay is PDE1. Put plainly: In vitro HTRF PDE1 inhibition assay. Type of assay: biochemical. The settings on record: HTRF cGMP assay, 100 nM cyclic GMP, PDE (1A3, 1B or 1C) with calmodulin, 45 minutes at 37° C.; isoform of the tabulated values not stated. In outline:
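Activities are given as IC50 bands (<1, 1-10, >10 μM) derived from a 665/615 nm time-resolved FRET readout after d2-cGMP/anti-cGMP cryptate detection. Enzymes PDE1A3, 1B or 1C plus calmodulin were incubated 45 min at 37 °C with 100 nM cGMP, 1% DMSO, CaCl2/MgCl2 Tris buffer pH 7.4.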
(In general: Time-resolved FRET reads energy transfer from a long-lived donor to a nearby acceptor.)

As a reminder, the IC50 is the concentration that inhibits the measured activity by half.

For `CCOc1cc(N2CCn3c(nn4c(C(C)C)ncc4c3=O)C2)ccc1F` [Compound I-177, 7-(3-Ethoxy-4-fluorophenyl)-3-isopropyl-8,9-dihydro-6H-imidazo[5,1-f]pyrazino[2,1-c][1,2,4]triazin-11(7H)-one], the IC50 is less than 1000 nM.
Turning to `COc1ccc(CN2CCn3c(nn4c(C(C)C)ncc4c3=O)C2)cc1` [Compound I-178, 3-Isopropyl-7-(4-methoxybenzyl)-8,9-dihydro-6H-imidazo[5,1-f]pyrazino[2,1-c][1,2,4]triazin-11(7H)-one], the IC50 is less than 1000 nM.
As to `CC(C)c1ncc2c(=O)n3c(nn12)CN(Cc1ccc(Cl)cc1)CC3` [Compound I-179, 7-(4-Chlorobenzyl)-3-isopropyl-8,9-dihydro-6H-imidazo[5,1-f]pyrazino[2,1-c][1,2,4]triazin-11(7H)-one], the IC50 is less than 1000 nM.
`CCOc1cccc(N2CCn3c(nn4c(C5CCCC5)ncc4c3=O)C2)c1` [Compound I-180, 3-Cyclopentyl-7-(3-ethoxyphenyl)-8,9-dihydro-6H-imidazo[5,1-f]pyrazino[2,1-c][1,2,4]triazin-11(7H)-one] yielded an IC50 of less than 1000 nM.
The compound `COc1cccc(N2CCn3c(nn4c(C5CCCC5)ncc4c3=O)C2)c1` [Compound I-181, 3-Cyclopentyl-7-(3-methoxyphenyl)-8,9-dihydro-6H-imidazo[5,1-f]pyrazino[2,1-c][1,2,4]triazin-11(7H)-one] registered an IC50 of less than 1000 nM.
As for `O=c1c2cnc(C3CCCC3)n2nc2n1CCN(c1ccc(Cl)cc1)C2` [Compound I-182, 7-(4-Chlorophenyl)-3-cyclopentyl-8,9-dihydro-6H-imidazo[5,1-f]pyrazino[2,1-c][1,2,4]triazin-11(7H)-one], the figure is less than 1000 nM; as for `O=c1c2cnc(C3CCCC3)n2nc2n1CCN(c1ccc(F)cc1)C2` [Compound I-183, 3-Cyclopentyl-7-(4-fluorophenyl)-8,9-dihydro-6H-imidazo[5,1-f]pyrazino[2,1-c][1,2,4]triazin-11(7H)-one], less than 1000 nM.
The compound `CCOc1cc(N2CCn3c(nn4c(C5CCCC5)ncc4c3=O)C2)ccc1F` [Compound I-184, 3-Cyclopentyl-7-(3-ethoxy-4-fluorophenyl)-8,9-dihydro-6H-imidazo[5,1-f]pyrazino[2,1-c][1,2,4]triazin-11(7H)-one] returned an IC50 of less than 1000 nM.
In turn, `O=c1c2cnc(C3CCCC3)n2nc2n1CCN(c1ccncc1)C2` [Compound I-185, 3-Cyclopentyl-7-(pyridin-4-yl)-8,9-dihydro-6H-imidazo[5,1-f]pyrazino[2,1-c][1,2,4]triazin-11(7H)-one] displayed an IC50 of 1000 to 10000 nM.
Take `Cc1ccc(CN2CCn3c(nc4c(cnn4C(C)C)c3=O)C2)cn1` [Compound I-186, 1-Isopropyl-8-((6-methylpyridin-3-yl)methyl)-6,7,8,9-tetrahydropyrazino[1,2-a]pyrazolo[3,4-d]pyrimidin-4(1H)-one]: the IC50 lay within 1000 to 10000 nM.
Compound `Cc1ccc(CN2CCn3c(nc4c(cnn4C4CCCC4)c3=O)C2)cn1` [Compound I-187, 1-Cyclopentyl-8-((6-methylpyridin-3-yl)methyl)-6,7,8,9-tetrahydropyrazino[1,2-a]pyrazolo[3,4-d]pyrimidin-4(1H)-one] showed an IC50 of less than 1000 nM.
For the compound `Cc1ccc(CN2CCn3c(nn4c(C(C)C)ncc4c3=O)C2)cn1` [Compound I-188, 3-Isopropyl-7-((6-methylpyridin-3-yl)methyl)-8,9-dihydro-6H-imidazo[5,1-f]pyrazino[2,1-c][1,2,4]triazin-11(7H)-one], the IC50 lay in the range of 1000 to 10000 nM.
In the case of `Cc1ccc(CN2CCn3c(nn4c(C5CCCC5)ncc4c3=O)C2)cn1` [Compound I-189, 3-Cyclopentyl-7-((6-methylpyridin-3-yl)methyl)-8,9-dihydro-6H-imidazo[5,1-f]pyrazino[2,1-c][1,2,4]triazin-11(7H)-one], the IC50 was less than 1000 nM.
As for `CC(C)n1ncc2c(=O)n3c(nc21)CN(Cc1cncnc1)CC3` [Compound I-190, 1-Isopropyl-8-(pyrimidin-5-ylmethyl)-6,7,8,9-tetrahydropyrazino[1,2-a]pyrazolo[3,4-d]pyrimidin-4(1H)-one], the figure is greater than 10000 nM; as for `O=c1c2cnn(C3CCCC3)c2nc2n1CCN(Cc1cncnc1)C2` [Compound I-191, 1-Cyclopentyl-8-(pyrimidin-5-ylmethyl)-6,7,8,9-tetrahydropyrazino[1,2-a]pyrazolo[3,4-d]pyrimidin-4(1H)-one], 1000 to 10000 nM; as for `CC(C)c1ncc2c(=O)n3c(nn12)CN(Cc1cncnc1)CC3` [Compound I-192, 3-Isopropyl-7-(pyrimidin-5-ylmethyl)-8,9-dihydro-6H-imidazo[5,1-f]pyrazino[2,1-c][1,2,4]triazin-11(7H)-one], greater than 10000 nM.
As for `O=c1c2cnc(C3CCCC3)n2nc2n1CCN(Cc1cncnc1)C2` [Compound I-193, 3-Cyclopentyl-7-(pyrimidin-5-ylmethyl)-8,9-dihydro-6H-imidazo[5,1-f]pyrazino[2,1-c][1,2,4]triazin-11(7H)-one], the figure is 1000 to 10000 nM; as for `Cc1ncc(CN2CCn3c(nc4c(cnn4C(C)C)c3=O)C2)cn1` [Compound I-194, 1-Isopropyl-8-((2-methylpyrimidin-5-yl)methyl)-6,7,8,9-tetrahydropyrazino[1,2-a]pyrazolo[3,4-d]pyrimidin-4(1H)-one], greater than 10000 nM; as for `Cc1ncc(CN2CCn3c(nc4c(cnn4C4CCCC4)c3=O)C2)cn1` [Compound I-195, 1-Cyclopentyl-8-((2-methylpyrimidin-5-yl)methyl)-6,7,8,9-tetrahydropyrazino[1,2-a]pyrazolo[3,4-d]pyrimidin-4(1H)-one], 1000 to 10000 nM.
`Cc1ncc(CN2CCn3c(nn4c(C(C)C)ncc4c3=O)C2)cn1` [Compound I-196, 3-Isopropyl-7-((2-methylpyrimidin-5-yl)methyl)-8,9-dihydro-6H-imidazo[5,1-f]pyrazino[2,1-c][1,2,4]triazin-11(7H)-one]: the IC50 lay in the range of 1000 to 10000 nM.
In turn, `Cc1ncc(CN2CCn3c(nn4c(C5CCCC5)ncc4c3=O)C2)cn1` [Compound I-197, 3-Cyclopentyl-7-((2-methylpyrimidin-5-yl)methyl)-8,9-dihydro-6H-imidazo[5,1-f]pyrazino[2,1-c][1,2,4]triazin-11(7H)-one] came in with an IC50 of 1000 to 10000 nM.
As for `Cc1cnc(CN2CCn3c(nc4c(cnn4C(C)C)c3=O)C2)nc1` [Compound I-198, 1-Isopropyl-8-((5-methylpyrimidin-2-yl)methyl)-6,7,8,9-tetrahydropyrazino[1,2-a]pyrazolo[3,4-d]pyrimidin-4(1H)-one], the figure is greater than 10000 nM.
Turning to `Cc1cnc(CN2CCn3c(nc4c(cnn4C4CCCC4)c3=O)C2)nc1` [Compound I-199, 1-Cyclopentyl-8-((5-methylpyrimidin-2-yl)methyl)-6,7,8,9-tetrahydropyrazino[1,2-a]pyrazolo[3,4-d]pyrimidin-4(1H)-one], the 50% inhibitory concentration (IC50) lay in the range of 1000 to 10000 nM.
For `Cc1cnc(CN2CCn3c(nn4c(C(C)C)ncc4c3=O)C2)nc1` [Compound I-200], the IC50 lay in the range of 1000 to 10000 nM.
In the case of `Cc1cnc(CN2CCn3c(nn4c(C5CCCC5)ncc4c3=O)C2)nc1` [Compound I-201], the IC50 was in the range of 1000 to 10000 nM.
For the compound `CC(C)n1ncc2c(=O)n3c(nc21)CN(Cc1cnccn1)CC3` [Compound I-202, 1-Isopropyl-8-(pyrazin-2-ylmethyl)-6,7,8,9-tetrahydropyrazino[1,2-a]pyrazolo[3,4-d]pyrimidin-4(1H)-one], the IC50 fell in the range of 1000 to 10000 nM.
For `O=c1c2cnn(C3CCCC3)c2nc2n1CCN(Cc1cnccn1)C2` [Compound I-203, 1-Cyclopentyl-8-(pyrazin-2-ylmethyl)-6,7,8,9-tetrahydropyrazino[1,2-a]pyrazolo[3,4-d]pyrimidin-4(1H)-one], the IC50 lay within 1000 to 10000 nM.
On to `CC(C)c1ncc2c(=O)n3c(nn12)CN(Cc1cnccn1)CC3` [Compound I-204, 3-Isopropyl-7-(pyrazin-2-ylmethyl)-8,9-dihydro-6H-imidazo[5,1-f]pyrazino[2,1-c][1,2,4]triazin-11(7H)-one], for which the IC50 lay in the range of 1000 to 10000 nM.
For `O=c1c2cnc(C3CCCC3)n2nc2n1CCN(Cc1cnccn1)C2` [Compound I-205, 3-Cyclopentyl-7-(pyrazin-2-ylmethyl)-8,9-dihydro-6H-imidazo[5,1-f]pyrazino[2,1-c][1,2,4]triazin-11(7H)-one], the IC50 was less than 1000 nM.
Regarding `Cc1cnc(CN2CCn3c(nc4c(cnn4C(C)C)c3=O)C2)cn1` [Compound I-206, 1-Isopropyl-8-((5-methylpyrazin-2-yl)methyl)-6,7,8,9-tetrahydropyrazino[1,2-a]pyrazolo[3,4-d]pyrimidin-4(1H)-one], the IC50 fell in the range of 1000 to 10000 nM.
In the case of `Cc1cnc(CN2CCn3c(nc4c(cnn4C4CCCC4)c3=O)C2)cn1` [Compound I-207, 1-Cyclopentyl-8-((5-methylpyrazin-2-yl)methyl)-6,7,8,9-tetrahydropyrazino[1,2-a]pyrazolo[3,4-d]pyrimidin-4(1H)-one], the IC50 lay within 1000 to 10000 nM.
Consider `Cc1cnc(CN2CCn3c(nn4c(C(C)C)ncc4c3=O)C2)cn1` [Compound I-208, 3-Isopropyl-7-((5-methylpyrazin-2-yl)methyl)-8,9-dihydro-6H-imidazo[5,1-f]pyrazino[2,1-c][1,2,4]triazin-11(7H)-one], for which the IC50 was in the range of 1000 to 10000 nM.
The compound `Cc1cnc(CN2CCn3c(nn4c(C5CCCC5)ncc4c3=O)C2)cn1` [Compound I-209, 3-Cyclopentyl-7-((5-methylpyrazin-2-yl)methyl)-8,9-dihydro-6H-imidazo[5,1-f]pyrazino[2,1-c][1,2,4]triazin-11(7H)-one] yielded an IC50 of less than 1000 nM.
Regarding `COc1ccc(CN2CCn3c(nc4c(cnn4C4CCOCC4)c3=O)C2)cc1` [Compound I-210, 8-(4-Methoxybenzyl)-1-(tetrahydro-2H-pyran-4-yl)-6,7,8,9-tetrahydropyrazino[1,2-a]pyrazolo[3,4-d]pyrimidin-4(1H)-one], the IC50 was 1000 to 10000 nM.
